Results published in patent US6677336B2, “Substituted piperazine compounds” (CV Therapeutics, Inc., priority 2000, dated 2004).

Legend:
[1] = test system: mitochondrial fatty acid oxidation (rat heart mitochondria); test: Palmitoyl CoA oxidation in isolated rat heart mitochondria; assay type: biochemical; conditions: 15 min at 30° C, DMSO control
Protocol: Compounds of this invention were evaluated in a rat heart mitochondiral assay as set forth below.
(§1) Rat heart mitochondria were isolated by the method of Nedergard and Cannon (methods in Enzymol. 55, 3, 1979).
Palmitoyl CoA oxidation—The Palmityl CoA oxidation was carried out in a total volume of 100 micro liters containing the following agents: 110 mM KCl, 33 mM Tris buffer at pH 8, 2 mM KPi, 2 mM MgCl2, 0.1 mM EDTA, 14.7 microM defatted BSA, 0.5 mM malic acid, 13 mM carnitine, 1 mM ADP, 52 micrograms of mitochondrial protein, and 16 microM 1-C14 palmitoyl CoA (Sp. Activity 60 mCi/mmole; 20 microCi/ml, using 5 microliters per assay). The compounds of this invention were added in a DMSO solution at the following concentrations: 100 microM, 30 microM, and 3 microM. In each assay, a DMSO control was used. After 15 min at 30° C., the enzymatic reaction was centrifuged (20,000 g for 1 min), and 70 microliters of the supernatant was added to an activated reverse phase silicic acid column (approximately 0.5 ml of silicic acid). The column was eluted with 2 ml of water, and 0.5 ml of the eluent was used for scintillation counting to determine the amount of C^14 trapped as C^14 bicarbonate ion.

[2] = test system: mitochondrial fatty acid oxidation (rat heart mitochondria); test: Palmitoyl carnitine oxidation in isolated rat heart mitochondria; assay type: biochemical; conditions: 15 min at 30° C, DMSO control
Protocol: as §1
The Palmitoyl carnitine oxidation was carried out in a total volume of 100 microliters containing the following agents: 110 mM KCl, 33 mM Tris buffer at pH 8, 2 mM KPi, 2 mM MgCl2, 0.1 mM EDTA, 0.1 mg/ml of defatted BSA, 0.5 mM malic acid, 3 mM ADP, 52 micrograms of mitochondrial protein, and 43 microM 1-C14 palmitoyl carnitine (Sp. Activity 60 mCi/mmole; 20 microCi/ml, using 5 microliters per assay). The compounds of this invention were added in a DMSO solution at the following concentrations: 100 microM, 30 microM, and 3 microM. In each assay, a DMSO control was used. After 15 min at 30° C., the enzymatic reaction was centrifuged (20,000 g for 1 min), and 70 microliters of the supernatant was added to an activated reverse phase silicic acid column (approximately 0.5 ml of silicic acid). The column was eluted with 2 ml of water, and 0.5 ml of the eluent was used for scintillation counting to determine the amount of C^14 trapped as C^14 bicarbonate ion. The data are presented as % activity of control in Table 3, below.

[3] = Metabolic stability in human liver S-9 fractions; conditions: human liver S9, 30 min at 37 C; for Liver S9 Parent Present relative to Ranolazine: 10 μM, % parent remaining divided by average % ranolazine remaining (57%)
Protocol: After, 30 minutes at 37 C, the amount of parent drug remaining was determined using LC-mass spec. The response factors for each compound was determined by establishing a standard curve and using an internal standard during the analysis of the samples. […] The compounds of this invention were assayed as described in the protocol below and the percentage of parent remaining was divided by the average % of ranolazine remaining (57%) affording a metabolic stability factor.
The purpose of this experiment is to compare the percentages remaining for compounds of this invention with the percentage remaining for ranolazine after 30 minutes of incubation with human liver S9 fractions.
The following reagents were used; Potassium phosphate, 0.5M pH 7.4 (incubation buffer), kept at room temperature; 0.05M MgCl2 kept at 4° C.; P-Nicotinamide adenine dinucleotide phosphate, tetrasodium salt, reduced form (NADPH), 0.02M solution in water (˜16.6mg/mL) from Sigma Lot #79H7044 prepared on day of use. 1 mM of ranolazine or Compounds 43, 45, 47, 52, 70, 74, 76, 78, and 80 in ACN further diluted to obtain 100 μM in 10% ACN; Human S9 stock: 20 mg/mL from Gentest.
Incubation mixtures were prepared as follows:
Combine all components with incubation buffer and re-pipette 200 μL/tube+25 μL of the compound being tested along with 25 μL of S-9.
After 5 min of pre-incubation at 37° C., at 0 and 30 min after starting the reaction, a 50 μl aliquot of the incubation mixture was removed and added to 100 μL of 9:1 acetonitrile: methanol containing the internal standard.
The mixture was centrifuged and a 100 μL aliquot of the supernatant was diluted in 1 mL of solvent C (0.1% Formic Acid in water). Then samples were analyzed for change between the ratio of compound to internal standard at time zero and 30 minutes by LC/MS (injected 10 EL).
Samples were analyzed for the starting compounds and potential metabolite/s by LC/MS using an internal standard and an ODS-C18 column with a flow rate of 0.25 ml/min.

Compound	Inhibition of mitochondrial fatty acid oxidation using palmitoyl CoA as substrate - % of Control ([1]; 30 μM compound)	Inhibition of mitochondrial fatty acid oxidation using palmitoyl CoA as substrate - % of Control ([1]; 100 μM compound)	Inhibition of mitochondrial fatty acid oxidation using palmitoyl carnitine as substrate - % of Control ([2]; 100 μM compound)	other results
COc1ccccc1OCC(O)CN1CCN(CC(=O)Nc2c(C)cccc2C)CC1 (racemic) [Ranolazine, (±)-N-(2,6-dimethylphenyl)-4-[2-hydroxy-3-(2-methoxyphenoxy)-propyl]-1-piperazineacetamide, reference compound]	90%	75%	63%	Inhibition of mitochondrial fatty acid oxidation using palmitoyl carnitine as substrate - % of Control ([2]; 30 μM compound): 98%; Liver S9 Parent Present relative to Ranolazine [3]: 1.0; percentage of parent drug remaining at the 30 minute time point ([3]; average of five experiments): 57%
COc1ccccc1OCC(O)CN1C(C)CN(CC(=O)Nc2c(C)cccc2C)CC1C (stereo not shown) [Compound 7, N-(2,6-dimethylphenyl)-2-{4-[2-hydroxy-3-(2-methoxy)propyl]-3,5-dimethylpiperazinyl}acetamide]	98%	85%	95%	Inhibition of mitochondrial fatty acid oxidation using palmitoyl CoA as substrate - % of Control ([1]; 3 μM compound): 107%; Inhibition of mitochondrial fatty acid oxidation using palmitoyl carnitine as substrate - % of Control ([2]; 3 μM compound): 109%; Inhibition of mitochondrial fatty acid oxidation using palmitoyl carnitine as substrate - % of Control ([2]; 30 μM compound): 102%
COc1ccccc1OCC(O)CN1C[C@@H](C)N(CC(=O)Nc2c(C)cccc2C)C[C@@H]1C (stereo partly drawn) [Compound 15, 2-{(5S,2R)-4-[2-hydroxy-3-(2-methoxyphenoxy)propyl]-2,5-dimethylpiperazinyl}-N-(2,6-dimethylphenyl)acetamide]	97%	78%	82%	Inhibition of mitochondrial fatty acid oxidation using palmitoyl CoA as substrate - % of Control ([1]; 3 μM compound): 103%; Inhibition of mitochondrial fatty acid oxidation using palmitoyl carnitine as substrate - % of Control ([2]; 3 μM compound): 106%; Inhibition of mitochondrial fatty acid oxidation using palmitoyl carnitine as substrate - % of Control ([2]; 30 μM compound): 98%; Liver S9 Parent Present relative to Ranolazine [3]: 1.20
COc1ccccc1OCC(O)CN1CCN(CC(=O)Nc2c(C)cccc2C)C(=O)C1 (stereo not shown) [Compound 16, N-(2,6-dimethylphenyl)-2-{4-[2-hydroxy-3-(2-methoxyphenoxy)propyl]-2-oxopiperazinyl}acetamide]	96%	100%	64%	Liver S9 Parent Present relative to Ranolazine [3]: 0.15
COc1ccccc1OCC(O)CN1CCN(CC(=O)Nc2c(C)cccc2C)C2CCCCC21 (stereo not shown) [Compound 17]	98%	89%	80%	Inhibition of mitochondrial fatty acid oxidation using palmitoyl CoA as substrate - % of Control ([1]; 3 μM compound): 100%; Inhibition of mitochondrial fatty acid oxidation using palmitoyl carnitine as substrate - % of Control ([2]; 3 μM compound): 103%; Inhibition of mitochondrial fatty acid oxidation using palmitoyl carnitine as substrate - % of Control ([2]; 30 μM compound): 88%; Liver S9 Parent Present relative to Ranolazine [3]: 0.45
COc1ccccc1OCC(O)CN1CCN(CC(=O)Nc2c(C)cccc2C)CC1(C)C (stereo not shown) [Compound 18, N-(2,6-dimethylphenyl)-2-{4-[2-hydroxy-3-(2-methoxyphenoxy)propyl]-3,3-dimethylpiperazinyl}acetamide]		80%	17%	
Cc1cccc(C)c1NC(=O)CN1CCN(CC(O)CCOc2ccc(C(C)(C)C)cc2)CC1 (stereo not shown) [Compound 22]		16%	25%	
C[C@H]1CN(CC(=O)Nc2ccc(C(F)(F)F)cc2)CCN1C[C@H](O)COc1ccccc1F [Compound 54, 2-{(3S)-4-[(2S)-3-(2-fluorophenoxy)-2-hydroxypropyl]-3-methylpiperazinyl}-N-[4-(trifluoromethyl)phenyl]acetamide]		75%		
C[C@H]1CN(CC(=O)Nc2ccc(Cl)c(C(F)(F)F)c2)CCN1C[C@H](O)COc1ccccc1F [Compound 55, 2-{(3S)-4-[(2S)-3-(2-fluorophenoxy)-2-hydroxypropyl]-3-methylpiperazinyl}-N-[4-chloro-3-(trifluoromethyl)phenyl]acetamide]		11%		
COc1cc(NC(=O)CN2CCN(C[C@H](O)COc3ccccc3F)[C@@H](C)C2)cc(OC)c1 [Compound 56, 2-{(3S)-4-[(2S)-3-(2-fluorophenoxy)-2-hydroxypropyl]-3-methylpiperazinyl}-N-(3,5-dimethoxyphenyl)acetamide]		83%		
C[C@H]1CN(CC(=O)Nc2ccc(N3CCOCC3)cc2)CCN1C[C@H](O)COc1ccccc1F [Compound 57, 2-{(3S)-4-[(2S)-3-(2-fluorophenoxy)-2-hydroxypropyl]-3-methylpiperazinyl}-N-(4-morpholin-4-ylphenyl)acetamide]		73%		
COc1ccc(NC(=O)CN2CCN(C[C@H](O)COc3ccccc3F)[C@@H](C)C2)cc1F [Compound 58, 2-{(3S)-4-[(2S)-3-(2-fluorophenoxy)-2-hydroxypropyl]-3-methylpiperazinyl}-N-(3-fluoro-4-methoxyphenyl)acetamide]		81%		
COc1cc(NC(=O)CN2CCN(C[C@H](O)COc3ccccc3F)[C@@H](C)C2)cc(OC)c1OC [Compound 59, 2-{(3S)-4-[(2S)-3-(2-fluorophenoxy)-2-hydroxypropyl]-3-methylpiperazinyl}-N-(3,4,5-trimethoxyphenyl)acetamide]		76%		
COc1ccc(NC(=O)CN2CCN(C[C@H](O)COc3ccccc3F)[C@@H](C)C2)cc1OC [Compound 60, 2-{(3S)-4-[(2S)-3-(2-fluorophenoxy)-2-hydroxypropyl]-3-methylpiperazinyl}-N-(3,4-dimethoxyphenyl)acetamide]		81%		
C[C@H]1CN(CC(=O)Nc2ccc(Cl)cc2F)CCN1C[C@H](O)COc1ccccc1F [Compound 61, 2-{(3S)-4-[(2S)-3-(2-fluorophenoxy)-2-hydroxypropyl]-3-methylpiperazinyl}-N-(4-chloro-2-fluorophenyl)acetamide]		65%		
Cc1cccc(CO)c1NC(=O)CN1CCN(C[C@H](O)COc2ccccc2F)[C@@H](C)C1 [Compound 62]		66%		
